Test results: ChEMBL document CHEMBL5108037, “Cyclic Peptide Screening Methods for Preclinical Drug Discovery” (J Med Chem, 2022)

What was measured:
[1] = target: T1, E3 ubiquitin-protein ligase Mdm2 (Homo sapiens, UniProt Q00987); test: Binding affinity to MDM2 (unknown origin) by surface plasmon resonance analysis
[2] = target: T1, E3 ubiquitin-protein ligase Mdm2; test: Inhibition of MDM2 (unknown origin) by Fluorescence polarization assay

T1 sequence (Q00987 whole entry): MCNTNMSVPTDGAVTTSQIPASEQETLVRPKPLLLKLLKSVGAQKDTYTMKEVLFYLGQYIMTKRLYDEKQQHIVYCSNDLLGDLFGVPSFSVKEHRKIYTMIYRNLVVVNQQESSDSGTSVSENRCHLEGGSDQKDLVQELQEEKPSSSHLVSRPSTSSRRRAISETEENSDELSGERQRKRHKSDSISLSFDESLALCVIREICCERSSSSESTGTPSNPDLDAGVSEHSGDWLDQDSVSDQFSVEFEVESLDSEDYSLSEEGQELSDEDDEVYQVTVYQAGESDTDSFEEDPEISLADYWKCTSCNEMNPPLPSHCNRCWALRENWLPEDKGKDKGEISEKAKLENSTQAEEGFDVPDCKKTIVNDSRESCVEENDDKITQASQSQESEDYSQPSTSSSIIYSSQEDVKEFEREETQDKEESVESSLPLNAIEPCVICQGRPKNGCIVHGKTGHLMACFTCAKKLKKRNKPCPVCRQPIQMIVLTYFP

Kd [1]: 5.5 µM
IC50 [2]: 0.6 µM
Structure (SMILES): CN1CCC(=O)NCCSCCS(=O)(=O)CCN(Cc2ccc(C#N)cc2)CC(=O)N[C@@H](Cc2cc3ccc(Cl)cc3[nH]2)C1=O
